Assay results reported in ChEMBL document CHEMBL1201862, “PubChem BioAssay data set” (2004).
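Results reflect a 48-hour exposure of cells in 96-well plates to compound at five concentrations. At the GI50, growth is halved.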 Activity calls are given as the source filed them. No stated cut-off is given here; in the data, active = GI50 up to about 1.1 µM and inactive = higher.

Experiments:
Test in all cases: NCI anticancer screen, dose series, 48 h
[1] = system: DLD-1
[2] = system: DMS-114
[3] = system: KM-20L2
[4] = system: LXFL 529
[5] = system: M19-MEL
[6] = system: RXF 631
[7] = system: SNB-78
[8] = system: HOP-18
[9] = system: XF498

Measured: GI50

Nc1nc(Cl)cc(NCCCCO)n1
inactive: [1] > 100 µM | [2] > 100 µM | [3] > 100 µM | [4] > 100 µM | [5] > 100 µM | [6] > 100 µM | [7] 15.9 µM

O=C(NC(Cc1ccc(I)cc1)C(=O)O)c1cccc(Br)c1 (stereo unspecified)
inactive: [1] > 100 µM | [2] 48 µM | [8] > 82.4 µM | [3] > 100 µM | [5] 56.2 µM | [7] > 100 µM

CSc1nc(NC2OCC(O)C(O)C2O)c(N)c(=O)n1C (stereo unspecified)
inactive: [1] > 100 µM | [8] > 100 µM | [3] > 100 µM | [7] > 100 µM | [9] > 100 µM

CCC1NC(/N=N/c2ccc([N+](=O)[O-])cc2)(P(=O)(OC(C)C)OC(C)C)OC1=O (stereo unspecified)
inactive: [1] > 100 µM | [3] > 100 µM | [4] > 100 µM | [5] > 100 µM | [7] > 100 µM | [9] > 100 µM

Cc1ccc(NC(=O)C2C(=O)N(c3ccc(C)c(C)c3)C(=O)/C2=N\NC(N)=S)cc1C (stereo unspecified)
inactive: [1] 79.6 µM | [3] > 100 µM | [4] > 100 µM | [5] > 100 µM | [6] > 100 µM | [7] > 100 µM | [9] 97.1 µM
